The text below walks through data of patent US8410302B2, “Methoxyimino compounds and fungicide composition comprising same” (Kyung Nong Corporation, priority 2007, dated 2013).

The subject of one assay is Botrytis cinerae. Briefly: Fungicidal activity against cucumber gray mold rot (CGM) disease, control value. Format: in vivo. The settings on record: for pest or weed control at 100 ppm / pest or weed control at 50 ppm: Botrytis, read-out: CGM control value (C.V.); for pest or weed control at 100 ppm / CGM control value (C.V.): 100 ppm.
The test system of assay [1] is Pyricularia oryzae Carvara KA301. Briefly: whole plant or invertebrate. Format: in vivo. The settings on record: for pest or weed control at 2 ppm / pest or weed control at 10 ppm / pest or weed control at 50 ppm / pest or weed control at 100 ppm: Pyricularia oryzae, read-out: RCB control value (C.V.); for RCB control value (C.V.): rice blast.
In a further assay the test system is Puccinia recondita. Briefly: Fungicidal activity against wheat leaf rust (WLR) disease, control value. It counts as in vivo. To be noted: for pest or weed control at 100 ppm / pest or weed control at 2 ppm / pest or weed control at 10 ppm / pest or weed control at 50 ppm: read-out: WLR control value (C.V.).
A further assay has as its system Phytophthora infestans. The assay is described as follows: whole plant or invertebrate. It counts as in vivo. The settings on record: for pest or weed control at 50 ppm / pest or weed control at 100 ppm / pest or weed control at 2 ppm / pest or weed control at 10 ppm: Phytophthora infestans, in Solanum lycopersicum, read-out: TLB control value (C.V.); for TLB control value (C.V.): tomato late blight.

The test system of a further assay is Rhizoctonia solani AG-1. Briefly: Fungicidal activity against rice sheath blight (RSB) disease, control value. To be noted: for pest or weed control at 100 ppm / pest or weed control at 2 ppm / pest or weed control at 10 ppm / pest or weed control at 50 ppm: Rhizoctonia solani, AG1, in Oryza sativa, read-out: RSB control value (C.V.); for RSB control value (C.V.): rice sheath blight.

Another assay relates to Erysiphae graminis. Briefly: Fungicidal activity against barley powdery mildew (BPM) disease, control value. It counts as in vivo. To be noted: for pest or weed control at 100 ppm / pest or weed control at 2 ppm / pest or weed control at 10 ppm / pest or weed control at 50 ppm: 168 h, read-out: BPM control value (C.V.).
[2] abbreviates: Hordeum vulgare, 100 ppm, barley powdery mildew.
The mark [3] stands for this setting: Hordeum vulgare, 50 ppm, barley powdery mildew.

Where two headings read alike, the source gives them in different places.

Regarding `CO/N=C(/C(=O)OC)c1ccccc1COc1cccc(C=C(Br)Br)c1` [Example 5, methyl-(E)-2-(2-((3-(2,2-dibromovinyl)phenoxy)methyl)phenyl)-2-methoxyiminoacetate], the pest or weed control at 100 ppm in the assay with Botrytis cinerae (cucumber gray mold rot) was 34%; in assay [1], 100%; in the assay with Puccinia recondita (100 ppm, wheat leaf rust) it was 92%; with Phytophthora infestans, 93%; in the assay with Rhizoctonia solani AG-1, 32%; in the assay with Erysiphae graminis (setting [2]), 87%. In assay [1], the pest or weed control at 2 ppm was 90%. In addition, the pest or weed control at 10 ppm in assay [1] was 97%. The pest or weed control at 50 ppm in assay [1] was determined as 100%; in the assay with Phytophthora infestans, 55%.

`CO/N=C(/C(=O)OC)c1ccccc1COc1ccc(C)cc1C=C(Cl)Cl` [Example 45, methyl-(E)-2-(2-((2-(2,2-dichlorovinyl)-4-methylphenoxy)methyl)phenyl)-2-methoxyiminoacetate]: the pest or weed control at 100 ppm with Botrytis cinerae (cucumber gray mold rot) is 35%; in assay [1], 100%; in the assay with Puccinia recondita (100 ppm, wheat leaf rust), 100%; in the assay on Phytophthora infestans it was 100%; in the assay on Rhizoctonia solani AG-1, 100%; in the assay on Erysiphae graminis (setting [2]) it was 100%. The pest or weed control at 2 ppm in assay [1] came to 100%; in the assay with Puccinia recondita (2 ppm, wheat leaf rust), 100%; in the assay on Phytophthora infestans it was 92%; in the assay with Rhizoctonia solani AG-1, 100%; in the assay on Erysiphae graminis (Hordeum vulgare, 2 ppm, barley powdery mildew), 100%. The pest or weed control at 10 ppm was 100% in assay [1]; 100% with Puccinia recondita (10 ppm, wheat leaf rust); 98% in the assay on Phytophthora infestans; 100% with Rhizoctonia solani AG-1; 100% in the assay on Erysiphae graminis (Hordeum vulgare, 10 ppm, barley powdery mildew). Moreover, the pest or weed control at 50 ppm was 100% in assay [1]; 100% with Puccinia recondita (50 ppm, wheat leaf rust); 100% with Phytophthora infestans; 100% in the assay with Rhizoctonia solani AG-1; 100% in the assay on Erysiphae graminis (setting [3]).

On to `CNC(=O)/C(=N/OC)c1ccccc1CON=C(C)c1cccc(C=C(Br)Br)c1` [Example 24, (E)-2-[[[[[2-[3-(2,2-dibromovinyl)phenyl](1-methyl)methylidene]amino]oxy]methyl]phenyl]-2-methoxyimino-N-methylacetamide], for which the “CGM control value (C.V.)” value in the assay on Botrytis cinerae (cucumber gray mold rot) is given as 60%. In addition, the “RCB control value (C.V.)” value in assay [1] (2 ppm) is on record as 98%; in assay [1] (10 ppm), 100%; in assay [1] (50 ppm), 100%; in assay [1] (100 ppm), 100%. In addition, the “WLR control value (C.V.)” value in the assay on Puccinia recondita (2 ppm, wheat leaf rust) stood at 0%; in the assay with Puccinia recondita (10 ppm, wheat leaf rust) it was 35%; with Puccinia recondita (50 ppm, wheat leaf rust), 95%; with Puccinia recondita (100 ppm, wheat leaf rust), 98%. Moreover, in the assay on Phytophthora infestans (100 ppm), the “TLB control value (C.V.)” value amounted to 50%. The “RSB control value (C.V.)” value in the assay with Rhizoctonia solani AG-1 (2 ppm) is recorded as 30%; in the assay on Rhizoctonia solani AG-1 (10 ppm) it was 90%; in the assay on Rhizoctonia solani AG-1 (50 ppm), 100%; in the assay with Rhizoctonia solani AG-1 (100 ppm), 100%. Further, the “BPM control value (C.V.)” value with Erysiphae graminis (2 ppm, barley powdery mildew) worked out at 10%; in the assay with Erysiphae graminis (10 ppm, barley powdery mildew), 60%; in the assay with Erysiphae graminis (50 ppm, barley powdery mildew), 90%; in the assay with Erysiphae graminis (100 ppm, barley powdery mildew), 100%.

Consider `CNC(=O)/C(=N/OC)c1ccccc1COc1ccc(C=C(Br)Br)cc1Cl` [Example 64, (E)-2-(2-((4-(2,2-dibromovinyl)-2-chlorophenoxy)methyl)phenyl)-2-methoxyimino-N-methylacetamide], for which the pest or weed control at 50 ppm with Botrytis cinerae is 40%; in assay [1], 100%; in the assay with Puccinia recondita (Puccinia recondita, 50 ppm), 100%; in the assay with Phytophthora infestans, 100%; with Rhizoctonia solani AG-1, 100%; with Erysiphae graminis (50 ppm), 100%. The pest or weed control at 100 ppm with Botrytis cinerae came out at 80%; in assay [1] it was 100%; in the assay with Puccinia recondita (Puccinia recondita, 100 ppm), 100%; in the assay with Phytophthora infestans it was 100%; in the assay with Rhizoctonia solani AG-1, 100%; with Erysiphae graminis (100 ppm) it was 100%. In addition, the pest or weed control at 2 ppm in assay [1] was 100%; in the assay with Puccinia recondita (Puccinia recondita, 2 ppm) it was 100%; in the assay on Phytophthora infestans, 99%; in the assay with Rhizoctonia solani AG-1, 95%; in the assay on Erysiphae graminis (2 ppm), 97%. For the same compound, the pest or weed control at 10 ppm came to 100% in assay [1]; 100% with Puccinia recondita (Puccinia recondita, 10 ppm); 100% in the assay on Phytophthora infestans; 100% in the assay on Rhizoctonia solani AG-1; 100% in the assay on Erysiphae graminis (10 ppm).

`CNC(=O)/C(=N/OC)c1ccccc1COc1ccc(C=C(F)F)cc1` [Example 10, (E)-2-(2-((4-(2,2-difluorovinyl)phenoxy)methyl)phenyl)-2-methoxyimino-N-methylacetamide]: the pest or weed control at 100 ppm in the assay on Botrytis cinerae (cucumber gray mold rot) worked out at 50%; in assay [1], 100%; in the assay with Puccinia recondita (100 ppm, wheat leaf rust), 100%; in the assay with Phytophthora infestans, 100%; with Rhizoctonia solani AG-1, 45%; in the assay with Erysiphae graminis (setting [2]), 98%. For the same compound, the pest or weed control at 2 ppm is 100% in assay [1]; 100% in the assay on Puccinia recondita (2 ppm, wheat leaf rust); 100% with Phytophthora infestans. Further, the pest or weed control at 10 ppm in assay [1] was determined as 100%; in the assay with Puccinia recondita (10 ppm, wheat leaf rust), 100%; with Phytophthora infestans it was 100%. The pest or weed control at 50 ppm in assay [1] came to 100%; in the assay with Puccinia recondita (50 ppm, wheat leaf rust), 100%; in the assay with Phytophthora infestans, 100%; in the assay with Erysiphae graminis (setting [3]), 60%.

For the compound `CO/N=C(/C(=O)OC)c1ccccc1CON=C(C)c1cccc(C=C(F)F)c1` [Example 27, methyl-(E)-2-[[[[[2-[3-(2,2-difluorovinyl)phenyl](1-methyl)methylidene]amino]oxy]methyl]phenyl]-2-methoxyiminoacetate], in the assay with Botrytis cinerae (cucumber gray mold rot), the “CGM control value (C.V.)” value turned out to be 55%. Besides, the “RCB control value (C.V.)” value is recorded as 90% in assay [1] (2 ppm), 97% in assay [1] (10 ppm), 100% in assay [1] (50 ppm) and 100% in assay [1] (100 ppm). For the same compound, the “WLR control value (C.V.)” value in the assay on Puccinia recondita (2 ppm, wheat leaf rust) turned out to be 100%; in the assay with Puccinia recondita (10 ppm, wheat leaf rust) it was 100%; with Puccinia recondita (50 ppm, wheat leaf rust) it was 100%; in the assay with Puccinia recondita (100 ppm, wheat leaf rust), 100%. Also, the “TLB control value (C.V.)” value in the assay on Phytophthora infestans (2 ppm) is 98%; in the assay with Phytophthora infestans (10 ppm) it was 100%; with Phytophthora infestans (50 ppm), 100%; with Phytophthora infestans (100 ppm), 100%. For the same compound, the “RSB control value (C.V.)” value in the assay with Rhizoctonia solani AG-1 (100 ppm) is recorded as 0%. Moreover, the “BPM control value (C.V.)” value in the assay with Erysiphae graminis (2 ppm, barley powdery mildew) came to 98%; in the assay with Erysiphae graminis (10 ppm, barley powdery mildew), 100%; with Erysiphae graminis (50 ppm, barley powdery mildew), 100%; with Erysiphae graminis (100 ppm, barley powdery mildew) it was 100%.

Turning to `CO/N=C(/C(=O)OC)c1ccccc1COc1cccc(C=C(Br)Br)c1Cl` [Example 67, methyl-(E)-2-(2-((3-(2,2-dibromovinyl)-2-chlorophenoxy)methyl)phenyl)-2-methoxyiminoacetate], the pest or weed control at 50 ppm in the assay on Botrytis cinerae amounted to 40%; in assay [1] it was 100%; in the assay with Puccinia recondita (Puccinia recondita, 50 ppm), 100%; with Phytophthora infestans it was 100%; in the assay with Rhizoctonia solani AG-1 it was 100%; in the assay on Erysiphae graminis (50 ppm) it was 100%. Besides, the pest or weed control at 100 ppm was 85% in the assay on Botrytis cinerae; 100% in assay [1]; 100% in the assay on Puccinia recondita (Puccinia recondita, 100 ppm); 100% with Phytophthora infestans; 100% with Rhizoctonia solani AG-1; 100% in the assay with Erysiphae graminis (100 ppm). The pest or weed control at 2 ppm in assay [1] was found to be 100%; in the assay on Puccinia recondita (Puccinia recondita, 2 ppm) it was 100%; with Phytophthora infestans, 99%; in the assay with Rhizoctonia solani AG-1, 100%; in the assay with Erysiphae graminis (2 ppm), 100%. Besides, the pest or weed control at 10 ppm in assay [1] came out at 100%; with Puccinia recondita (Puccinia recondita, 10 ppm), 100%; with Phytophthora infestans, 100%; in the assay on Rhizoctonia solani AG-1, 100%; with Erysiphae graminis (10 ppm), 100%.
